Measured values from the supplement of paper PMC10627819.

Legend:
[1] = tested on: B. subtilis 168; experiment: fitness (endpoint OD595 vs no drug) (fraction); higher = more growth
In short: (§1)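 Growth medium was TSB, LB Lennox or CY, and plates were kept at 37 °C. Inoculation was at OD595 0.01 in 384-well plates, at 30 µl per well or 55 µl for S. pneumoniae. OD595 was monitored every 30 min for 14 h and background-subtracted using the first reading. Fitness is the optical density on entering stationary phase divided by the robust mean of no-drug controls, with values capped at 1.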

[2] = tested on: S. pneumoniae D39V; experiment: as above
In short: as §1

[3] = tested on: S. aureus DSM 20231; experiment: as above
In short: as §1

[4] = tested on: S. aureus Newman; experiment: as above
In short: as §1

[5] = tested on: B. subtilis 168; experiment: Bliss interaction score (quartile over a dose matrix) (fitness difference); higher = more antagonism (negative = synergy)
In short: (§2)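 The Bliss score subtracts expected fitness, the product of the single-drug fitness values, from observed fitness. Fitness is plate-normalised OD595 at entry into stationary phase, relative to the robust no-drug mean and capped at 1, with single-drug fitness inferred from combinations. Summaries are quartiles over technical, biological and donor/recipient replicates.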

[6] = tested on: S. pneumoniae D39V; experiment: as above
In short: as §2

[7] = tested on: S. aureus DSM 20231; experiment: as above
In short: as §2

[8] = tested on: S. aureus Newman; experiment: as above
In short: as §2
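Throughout, for Bliss interaction score (quartile over a dose matrix): first quartile when negative (synergy) and third quartile when positive (antagonism).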

COc1cccc2c1C(=O)c1c(O)c3c(c(O)c1C2=O)C[C@@](O)(C(=O)CO)C[C@@H]3O[C@H]1C[C@H](N)[C@H](O)[C@H](C)O1 [Doxorubicin] + O=C(O[C@@H]1Cc2c(O)cc(O)cc2O[C@@H]1c1cc(O)c(O)c(O)c1)c1cc(O)c(O)c(O)c1 [EGCG]
fitness
Conditions | partner 6.25 µg/mL | partner 12.5 µg/mL | partner 25 µg/mL | partner 50 µg/mL
[1], first compound 0.625 µg/mL | 0.934 | 0.617 | – | –
[1], first compound 1.25 µg/mL | 0.932 | 0.554 | – | –
[1], first compound 2.5 µg/mL | 0.737 | 0.429 | – | –
[2], first compound 0.25 µg/mL | – | 0.916 | 0.987 | 0.924
[2], first compound 0.5 µg/mL | – | 0.904 | 0.845 | ≥ 1
[2], first compound 1 µg/mL | – | – | 0.804 | 0.903
[3], first compound 0.625 µg/mL | – | 0.688 | 0.707 | –
[3], first compound 1.25 µg/mL | – | 0.708 | 0.676 | –
[3], first compound 2.5 µg/mL | – | 0.728 | 0.715 | –
[4], first compound 0.625 µg/mL | – | 0.731 | 0.712 | –
[4], first compound 1.25 µg/mL | – | 0.705 | 0.703 | 0.594
[4], first compound 2.5 µg/mL | – | 0.678 | 0.66 | 0.617

Conditions | Bliss interaction score
[5] | -0.0819
[6] | 0.0782
[7] | -0.107
[8] | 0.0447

Cc1ncc([N+](=O)[O-])n1CCO [Metronidazole] + COc1ccc(C[C@H](N)C(=O)N[C@H]2[C@@H](O)[C@H](n3cnc4c(N(C)C)ncnc43)O[C@@H]2CO)cc1 [Puromycin]
fitness
Conditions | first compound 0.625 µg/mL | first compound 1.073 µg/mL | first compound 1.25 µg/mL | first compound 2.145 µg/mL | first compound 2.5 µg/mL | first compound 4.29 µg/mL
[1], partner 0.39 µg/mL | 0.936 | – | 0.945 | – | 0.961 | –
[1], partner 0.78 µg/mL | 0.953 | – | 0.931 | – | 0.937 | –
[1], partner 1.56 µg/mL | 0.946 | – | 0.895 | – | 0.864 | –
[2], partner 1 µg/mL | – | ≥ 1 | – | 0.875 | – | 0.96
[2], partner 2 µg/mL | – | 0.973 | – | 0.904 | – | 0.914
[2], partner 4 µg/mL | – | 0.874 | – | 0.836 | – | 0.88
[3], partner 0.39 µg/mL | 0.997 | – | ≥ 1 | – | ≥ 1 | –
[3], partner 0.78 µg/mL | ≥ 1 | – | ≥ 1 | – | ≥ 1 | –
[3], partner 1.56 µg/mL | ≥ 1 | – | ≥ 1 | – | ≥ 1 | –
[4], partner 0.39 µg/mL | 0.902 | – | 0.998 | – | ≥ 1 | –
[4], partner 0.78 µg/mL | 0.968 | – | ≥ 1 | – | ≥ 1 | –
[4], partner 1.56 µg/mL | ≥ 1 | – | ≥ 1 | – | ≥ 1 | –

one replicate
Conditions | fitness
[2], first compound 1.25 µg/mL, partner 1 µg/mL | 0.928
[2], first compound 1.25 µg/mL, partner 2 µg/mL | 0.97
[2], first compound 1.25 µg/mL, partner 4 µg/mL | 0.842
[2], first compound 2.5 µg/mL, partner 1 µg/mL | 0.936
[2], first compound 2.5 µg/mL, partner 2 µg/mL | ≥ 1
[2], first compound 2.5 µg/mL, partner 4 µg/mL | 0.835
[2], first compound 5 µg/mL, partner 1 µg/mL | 0.97
[2], first compound 5 µg/mL, partner 2 µg/mL | 0.95
[2], first compound 5 µg/mL, partner 4 µg/mL | 0.852
[3], first compound 0.625 µg/mL, partner 3.12 µg/mL | ≥ 1
[3], first compound 0.625 µg/mL, partner 6.24 µg/mL | 0.756
[3], first compound 1.25 µg/mL, partner 3.12 µg/mL | 0.957
[3], first compound 1.25 µg/mL, partner 6.24 µg/mL | 0.827
[3], first compound 2.5 µg/mL, partner 3.12 µg/mL | 0.977
[3], first compound 2.5 µg/mL, partner 6.24 µg/mL | 0.848
[4], first compound 0.781 µg/mL, partner 0.39 µg/mL | ≥ 1
[4], first compound 0.781 µg/mL, partner 0.78 µg/mL | ≥ 1
[4], first compound 0.781 µg/mL, partner 1.56 µg/mL | ≥ 1
[4], first compound 1.562 µg/mL, partner 0.39 µg/mL | 0.974
[4], first compound 1.562 µg/mL, partner 0.78 µg/mL | 0.997
[4], first compound 1.562 µg/mL, partner 1.56 µg/mL | ≥ 1
[4], first compound 3.124 µg/mL, partner 0.39 µg/mL | 0.933
[4], first compound 3.124 µg/mL, partner 0.78 µg/mL | ≥ 1
[4], first compound 3.124 µg/mL, partner 1.56 µg/mL | ≥ 1

Conditions | Bliss interaction score
[5] | -0.0368
[6] | 0.129
[7] | 0.0499
[8] | 0.0534
